# Key:
# Type in all cases: in vivo, rat
# SOD mRNA = SOD mRNA expression in renal tissue, semi-quantitative RT-PCR; details: increasing amount of ABA (10-500 μM) injected 40 minutes before reperfusion, FIG. 5
# Method: (§1) In another dosage experiment, rats were randomly divided into five groups. The first group was a group of operated rats that underwent ischemia followed by an hour-long reperfusion without being treated with ABA (operated untreated control). The other four groups included operated rats that underwent ischemia followed by an hour-long reperfusion with an intravenous ABA treatment 40 minutes before reperfusion at a final concentration of either 10 μM, 50 μM, 100 μM, or 500 μM of ABA. Upon completion of the one-hour reperfusion, the rats were anesthetized with intraperitoneal injection of ketamine (40 mg/kg) and diazepam (5 mg/kg) and evaluated.
# (§2) Following the anesthesia, an abdominal opening technique was performed by a midline laparotomy incision. See, FIGS. 1A-F. After repositioning the intestines, the aorta came into sight and was carefully isolated. After the isolation process, the aorta was occluded for one hour (ischemic period). The clamp was released at the end of the ischemic period to start the reperfusion for one hour. Right after the one-hour reperfusion treatment period, peripheral blood samples were collected and evaluated.
# (§3) Total RNA was extracted from the renal tissue samples with TRI reagent (Sigma-Aldrich) according to the manufacturer's instructions. […]
# PPAR-γ mRNA = PPAR-γ mRNA expression in renal tissue, semi-quantitative RT-PCR; details: ABA 40 minutes before reperfusion, FIG. 6
# Method: as §1, §2, §3
# [1] = tested on: Wistar albino rats, ischemia-reperfusion; test: Inhibition of oxidative stress during the ischemia-reperfusion process, stress markers taken together
# Method: as §1, with “Rats were” for “In another dosage experiment, rats were”, “treatment 20” for “treatment 40”
# (§4) In another dosage experiment, rats were randomly divided into five groups. […] Upon completion of the one-hour reperfusion, the rats were anesthetized with intraperitoneal injection of ketamine (40 mg/kg) and diazepam (5 mg/kg) and evaluated.
# (§5) Following the anesthesia, an abdominal opening technique was performed by a midline laparotomy incision. […] Right after the one-hour reperfusion treatment period, peripheral blood samples were collected and evaluated.
# Malondialdehyde (MDA) levels were determined in anti-coagulated whole blood using a colorimetric assay as described elsewhere (Ohakawa et al., Anal. Biochem., 95:351-8 (1979)). […]
# skeletal muscle = test: Histological analysis of skeletal muscle (m. tensor fasciae latae) after ischemia-reperfusion; details: 100 μM i.v. at 20th minute of 1 h ischemia, 1 h reperfusion; versus ischemic reperfused operated controls; FIG. 7C
# Method: Wistar albino rats (250-280 g) were sham operated (control without ischemia-reperfusion treatment), subjected to ischemia followed by reperfusion (ischemia-reperfusion control), or subjected to ischemia followed by reperfusion with ABA being injected intravenously at a final concentration of 100 μM at the 20th minute of the one hour long ischemic period, which was followed by a one-hour reperfusion. After the one-hour reperfusion periods, tissue samples were obtained from the hind limb (m. tensor fasciae latae) of the rats and fixed in 10% buffered formaldehyde prior to being processed in a paraffin-embedded block. Four-micrometer-thick sections were cut and stained with hematoxylin and eosin.
# [2] = tested on: Wistar albino rats, ischemia-reperfusion; test: Total thiol groups (SH) in whole blood after ischemia-reperfusion; details: 10, 50, 100 and 500 μM, 40 minutes before reperfusion; FIG. 4
# Method: as §1
# as §5, with “incision. See, FIGS. 1A-F. After repositioning the intestines, the aorta came into sight and was carefully isolated.” for “incision.”
# (§6) Malondialdehyde (MDA) levels were determined in anti-coagulated whole blood using a colorimetric assay as described elsewhere (Ohakawa et al., Anal. Biochem., 95:351-8 (1979)). Reduced glutathione (GSH) levels, as opposed to oxidized GSH, were measured in anti-coagulated whole blood using a colorimetric assay as described elsewhere (Sedlak and Lindsay, Anal. Biochem., 25:192-205 (1968)). […]
# [3] = tested on: Superoxide dismutase (SOD); test: Superoxide dismutase (SOD) enzyme activity in washed red blood cells after ischemia-reperfusion
# Method: (§7) The rats were divided randomly into four groups. The first group was a group of operated rats that underwent ischemia followed by an hour-long reperfusion without being treated with ABA (operated untreated control). The other three groups included operated rats that underwent ischemia followed by an hour-long reperfusion with an ABA treatment (intravenously; final concentration of 100 μM) either 20 minutes, 40 minutes, or 60 minutes before reperfusion. Upon completion of the one-hour reperfusion, the rats were anesthetized with intraperitoneal injection of ketamine (40 mg/kg) and diazepam (5 mg/kg) and evaluated.
# (§8) Rats were randomly divided into five groups. The first group was a group of operated rats that underwent ischemia followed by an hour-long reperfusion without being treated with ABA (operated untreated control). […] Upon completion of the one-hour reperfusion, the rats were anesthetized with intraperitoneal injection of ketamine (40 mg/kg) and diazepam (5 mg/kg) and evaluated.
# as §4, §5
# as §6, with “(1968)). Superoxide dismutase (SOD) enzyme activity was measured in washed red blood cells using a colorimetric assay as described elsewhere (Misra and Fridovich, J. Biol. Chem., 247:3170-3175 (1972)).” for “(1968)).”
# [4] = tested on: Wistar albino rats, ischemia-reperfusion; test: Malondialdehyde (MDA) levels in whole blood after ischemia-reperfusion (infrarenal aorta occlusion)
# Method: as §7, §8, §4, §5
# as §6, with “(1968)). Superoxide dismutase (SOD) enzyme activity was measured in washed red blood cells using a colorimetric assay as described elsewhere (Misra and Fridovich, J. Biol. Chem., 247:3170-3175 (1972)).” for “(1968)).”
# [5] = tested on: Wistar albino rats, ischemia-reperfusion; test: Reduced glutathione (GSH) levels in whole blood after ischemia-reperfusion
# Method: as §7, §8, §4, §5
# as §6, with “(1968)). Superoxide dismutase (SOD) enzyme activity was measured in washed red blood cells using a colorimetric assay as described elsewhere (Misra and Fridovich, J. Biol. Chem., 247:3170-3175 (1972)).” for “(1968)).”
structure (smiles),measurement,setting,value
"CC1=CC(=O)CC(C)(C)[C@@]1(O)/C=C/C(C)=C\C(=O)O [ABA, (2Z,4E)-5-[(1S)-1-hydroxy-2,6,6-trimethyl-4-oxocyclohex-2-en-1-yl]-3-methylpenta-2,4-dienoic acid]",SOD mRNA expression,SOD mRNA,increased levels of SOD mRNA expression
same,expression of PPAR-γ mRNA,PPAR-γ mRNA,increased expression of PPAR-γ mRNA
same,concentration as low as which ABA inhibits oxidative stress,[1]; 20 minutes before reperfusion,10 µM
same,levels as low as which ABA inhibits oxidative stress,[1]; 40 minutes before reperfusion,10 to 50 µM
same,extracellular oedema (fiber separation),skeletal muscle,minimal extracellular oedema
same,intercellular vacuolization,skeletal muscle,near complete absence of intercellular vacuolization
same,tissue and cell architecture,skeletal muscle,noticeable helped to preserve of the normal tissue and cell architecture
same,levels of SH (total thiol groups),[2],increase in the levels of SH
same,SOD activity,"[3]; 100 μM final concentration, all time-points tested (0, 20, 40, 60 minutes before reperfusion), FIG. 2",increases in SOD activity at all time-points tested
same,SOD activity,"[3]; 10, 100 and 500 μM, 40 minutes before reperfusion, FIG. 4",increase in SOD activity
same,SOD activity,"[3]; 100 and 500 μM, 20 minutes before reperfusion, FIG. 3",increase in SOD activity
same,level of MDA,"[4]; 100 μM final concentration, superior mesenteric vein, 0, 20, 40 and 60 minutes before reperfusion, blood after 1 h ischemia and 1 h reperfusion, FIG. 2",efficiently diminished the level of MDA at all time-points tested
same,level of MDA,"[4]; 10, 50, 100 and 500 μM final concentration, 20 minutes before reperfusion, FIG. 3",efficiently diminished the level of MDA
same,level of MDA,"[4]; 100 and 500 μM final concentration, 40 minutes before reperfusion, FIG. 4",efficiently diminished the level of MDA
same,reduced GSH levels,"[5]; 100 μM final concentration, administered 40 or 60 minutes prior to reperfusion, FIG. 2",increases in reduced GSH levels
same,reduced GSH levels,"[5]; 50, 100 and 500 μM, 20 minutes before reperfusion, FIG. 3",decrease in the levels of reduced GSH levels
same,reduced GSH levels,"[5]; 50, 100 and 500 μM, 40 minutes before reperfusion, FIG. 4",increase in the levels of reduced GSH levels

# From US10610501B2, “Methods and materials for reducing ischemia-reperfusion injury” (The University of Pécs (Pécsi Tudományegyetem), priority 2014, dated 2020)
